Earlier results in article PMC3166015 (Emerging Infectious Diseases, 2011).

Tested on: earliest pandemic (H1N1) 2009 virus isolates
Details: cited from earlier work
In the case of `CCOC(=O)C1=C[C@@H](OC(CC)CC)[C@H](NC(C)=O)[C@@H](N)C1` [Oseltamivir, oseltamivir], the “susceptibility of earliest virus isolates” value (shortened to “susceptibility”) is given as “sensitive”.
In the case of `CC(=O)N[C@H]1[C@H]([C@H](O)[C@H](O)CO)OC(C(=O)O)=C[C@@H]1N=C(N)N` [Zanamivir, zanamivir], the “susceptibility” value is given as “sensitive”.
For `NC12CC3CC(CC(C3)C1)C2` [amantadine], the “susceptibility” value is given as “resistant”.
For `CC(N)C12CC3CC(CC(C3)C1)C2` (stereo not shown) [rimantadine], the “susceptibility” value is given as “resistant”.
